Reference: the NIST ThermoML archive (doi:10.1021/je300692s)
Numbers after ± are expanded uncertainties.

Assay: activity coefficient (dimensionless); of the first substance listed, at infinite dilution; xn = mol fraction of the nth substance listed
Conditions: 101 kPa, Liquid, Chromatography, x1 = 0

Compound	activity coefficient (322.6 K)	activity coefficient (332.5 K)	activity coefficient (342.8 K)	activity coefficient (323 K)	activity coefficient (333 K)	activity coefficient (343.1 K)	activity coefficient (322.9 K)
Cc1ccccc1C [1,2-dimethylbenzene] + CCCCCCCCCC[N+]1(C)CCCC1.O=S(=O)([N-]S(=O)(=O)C(F)(F)F)C(F)(F)F	0.92 ± 0.09	0.94 ± 0.1	0.96 ± 0.1	–	–	–	–
Cc1ccccc1C [1,2-dimethylbenzene] + CCCCCCCC[N+]1(C)CCCC1.O=S(=O)([N-]S(=O)(=O)C(F)(F)F)C(F)(F)F	–	–	–	0.92 ± 0.09	0.87 ± 0.09	0.97 ± 0.1	–
Cc1ccccc1C [1,2-dimethylbenzene] + CCCCCC[N+]1(C)CCCC1.O=S(=O)([N-]S(=O)(=O)C(F)(F)F)C(F)(F)F	–	–	–	–	1.28 ± 0.13	1.31 ± 0.13	1.17 ± 0.12
Cc1cccc(C)c1 [1,3-dimethylbenzene] + CCCCCCCCCC[N+]1(C)CCCC1.O=S(=O)([N-]S(=O)(=O)C(F)(F)F)C(F)(F)F	0.99 ± 0.1	1 ± 0.1	1.03 ± 0.1	–	–	–	–
Cc1cccc(C)c1 [1,3-dimethylbenzene] + CCCCCCCC[N+]1(C)CCCC1.O=S(=O)([N-]S(=O)(=O)C(F)(F)F)C(F)(F)F	–	–	–	1 ± 0.1	0.84 ± 0.09	1.05 ± 0.11	–
Cc1cccc(C)c1 [1,3-dimethylbenzene] + CCCCCC[N+]1(C)CCCC1.O=S(=O)([N-]S(=O)(=O)C(F)(F)F)C(F)(F)F	–	–	–	–	1.39 ± 0.14	1.42 ± 0.15	1.28 ± 0.13
Cc1ccc(C)cc1 [1,4-dimethylbenzene] + CCCCCCCCCC[N+]1(C)CCCC1.O=S(=O)([N-]S(=O)(=O)C(F)(F)F)C(F)(F)F	1 ± 0.1	1.01 ± 0.1	1.03 ± 0.1	–	–	–	–
Cc1ccc(C)cc1 [1,4-dimethylbenzene] + CCCCCCCC[N+]1(C)CCCC1.O=S(=O)([N-]S(=O)(=O)C(F)(F)F)C(F)(F)F	–	–	–	1.01 ± 0.1	0.99 ± 0.1	1.05 ± 0.11	–
Cc1ccc(C)cc1 [1,4-dimethylbenzene] + CCCCCC[N+]1(C)CCCC1.O=S(=O)([N-]S(=O)(=O)C(F)(F)F)C(F)(F)F	–	–	–	–	1.4 ± 0.14	1.42 ± 0.15	1.35 ± 0.14
C1COCCO1 [1,4-dioxane] + CCCCCCCCCC[N+]1(C)CCCC1.O=S(=O)([N-]S(=O)(=O)C(F)(F)F)C(F)(F)F	0.38 ± 0.05	0.35 ± 0.04	0.38 ± 0.05	–	–	–	–
C1COCCO1 [1,4-dioxane] + CCCCCCCC[N+]1(C)CCCC1.O=S(=O)([N-]S(=O)(=O)C(F)(F)F)C(F)(F)F	–	–	–	0.32 ± 0.04	0.6 ± 0.06	0.31 ± 0.04	–
C1COCCO1 [1,4-dioxane] + CCCCCC[N+]1(C)CCCC1.O=S(=O)([N-]S(=O)(=O)C(F)(F)F)C(F)(F)F	–	–	–	–	0.42 ± 0.05	0.44 ± 0.05	0.58 ± 0.06
C#CCCCCC [1-heptyne] + CCCCCCCCCC[N+]1(C)CCCC1.O=S(=O)([N-]S(=O)(=O)C(F)(F)F)C(F)(F)F	1.81 ± 0.19	1.83 ± 0.19	1.83 ± 0.19	–	–	–	–
C#CCCCCC [1-heptyne] + CCCCCCCC[N+]1(C)CCCC1.O=S(=O)([N-]S(=O)(=O)C(F)(F)F)C(F)(F)F	–	–	–	1.94 ± 0.2	1.89 ± 0.2	1.9 ± 0.2	–
C#CCCCCC [1-heptyne] + CCCCCC[N+]1(C)CCCC1.O=S(=O)([N-]S(=O)(=O)C(F)(F)F)C(F)(F)F	–	–	–	–	2.79 ± 0.29	2.78 ± 0.29	2.24 ± 0.24
C#CCCCC [1-hexyne] + CCCCCCCCCC[N+]1(C)CCCC1.O=S(=O)([N-]S(=O)(=O)C(F)(F)F)C(F)(F)F	1.5 ± 0.16	1.48 ± 0.15	1.47 ± 0.15	–	–	–	–

Compound	activity coefficient (322.6 K)	activity coefficient (332.5 K)	activity coefficient (342.8 K)	activity coefficient (323 K)	activity coefficient (333 K)	activity coefficient (343.1 K)	activity coefficient (322.9 K)
C#CCCCC [1-hexyne] + CCCCCCCC[N+]1(C)CCCC1.O=S(=O)([N-]S(=O)(=O)C(F)(F)F)C(F)(F)F	–	–	–	1.57 ± 0.16	1.58 ± 0.16	1.34 ± 0.14	–
C#CCCCC [1-hexyne] + CCCCCC[N+]1(C)CCCC1.O=S(=O)([N-]S(=O)(=O)C(F)(F)F)C(F)(F)F	–	–	–	–	2.1 ± 0.22	2.09 ± 0.22	2.1 ± 0.22
CCC[N+](=O)[O-] [1-nitropropane] + CCCCCCCCCC[N+]1(C)CCCC1.O=S(=O)([N-]S(=O)(=O)C(F)(F)F)C(F)(F)F	0.62 ± 0.07	0.61 ± 0.07	0.6 ± 0.06	–	–	–	–
CCC[N+](=O)[O-] [1-nitropropane] + CCCCCCCC[N+]1(C)CCCC1.O=S(=O)([N-]S(=O)(=O)C(F)(F)F)C(F)(F)F	–	–	–	0.55 ± 0.06	0.52 ± 0.06	0.51 ± 0.06	–
CCC[N+](=O)[O-] [1-nitropropane] + CCCCCC[N+]1(C)CCCC1.O=S(=O)([N-]S(=O)(=O)C(F)(F)F)C(F)(F)F	–	–	–	–	0.66 ± 0.07	0.65 ± 0.07	0.66 ± 0.07
CC(C)CO [2-methyl-1-propanol] + CCCCCCCCCC[N+]1(C)CCCC1.O=S(=O)([N-]S(=O)(=O)C(F)(F)F)C(F)(F)F	1.7 ± 0.18	1.53 ± 0.16	1.39 ± 0.14	–	–	–	–
CC(C)CO [2-methyl-1-propanol] + CCCCCCCC[N+]1(C)CCCC1.O=S(=O)([N-]S(=O)(=O)C(F)(F)F)C(F)(F)F	–	–	–	1.59 ± 0.17	1.44 ± 0.15	1.22 ± 0.13	–
CC(C)CO [2-methyl-1-propanol] + CCCCCC[N+]1(C)CCCC1.O=S(=O)([N-]S(=O)(=O)C(F)(F)F)C(F)(F)F	–	–	–	–	2.67 ± 0.16	1.65 ± 0.1	1.87 ± 0.11
CCC(C)CC [3-methylpentane] + CCCCCCCCCC[N+]1(C)CCCC1.O=S(=O)([N-]S(=O)(=O)C(F)(F)F)C(F)(F)F	3.65 ± 0.38	3.36 ± 0.35	3.4 ± 0.36	–	–	–	–
CCC(C)CC [3-methylpentane] + CCCCCCCC[N+]1(C)CCCC1.O=S(=O)([N-]S(=O)(=O)C(F)(F)F)C(F)(F)F	–	–	–	4.61 ± 0.48	4.52 ± 0.47	4.08 ± 0.43	–
CCC(C)CC [3-methylpentane] + CCCCCC[N+]1(C)CCCC1.O=S(=O)([N-]S(=O)(=O)C(F)(F)F)C(F)(F)F	–	–	–	–	6.46 ± 0.68	6.37 ± 0.67	6.52 ± 0.69
CC#N [acetonitrile] + CCCCCCCCCC[N+]1(C)CCCC1.O=S(=O)([N-]S(=O)(=O)C(F)(F)F)C(F)(F)F	0.49 ± 0.05	0.5 ± 0.06	0.49 ± 0.05	–	–	–	–
CC#N [acetonitrile] + CCCCCCCC[N+]1(C)CCCC1.O=S(=O)([N-]S(=O)(=O)C(F)(F)F)C(F)(F)F	–	–	–	0.43 ± 0.05	0.39 ± 0.05	0.37 ± 0.04	–
CC#N [acetonitrile] + CCCCCC[N+]1(C)CCCC1.O=S(=O)([N-]S(=O)(=O)C(F)(F)F)C(F)(F)F	–	–	–	–	0.46 ± 0.05	0.48 ± 0.05	0.46 ± 0.05
c1ccccc1 [benzene] + CCCCCCCCCC[N+]1(C)CCCC1.O=S(=O)([N-]S(=O)(=O)C(F)(F)F)C(F)(F)F	0.62 ± 0.07	0.63 ± 0.07	0.64 ± 0.07	–	–	–	–
c1ccccc1 [benzene] + CCCCCCCC[N+]1(C)CCCC1.O=S(=O)([N-]S(=O)(=O)C(F)(F)F)C(F)(F)F	–	–	–	0.6 ± 0.06	0.62 ± 0.07	0.61 ± 0.07	–
